Key:
[1] = system: SHH-driven medulloblastoma; assay: Survival; type: in vivo, mouse; details: 100 mg/kg IP or orally, or 50 mg/kg IP
serum protein = assay: Unbound vismodegib over time after incubation in FBS; type: in vitro ADME, bovine; details: 30 min incubation
[2] = 4 h
[3] = Bone toxicity: femur length by CT scan and direct measurement; type: in vivo, mouse; details: 4 daily doses of 100 mg/kg IP from P10
albumin = details: 4 h post administration, SPE
phosphorylated RB (pRB) = assay: Pharmacodynamics: pRB+ / PCNA proliferation markers in G-Smo medulloblastoma; type: in vivo, mouse; details: for suppression of pRB+ cell fraction in tumors: 24 h
[4] = cited from earlier work
[5] = children; cited from earlier work
[6] = Pharmacokinetics by LC-MS in medulloblastoma-bearing G-Smo mice; details: mouse, in vivo, ip, 100 mg/kg
[7] = Spatial distribution of vismodegib in brain sections by IR-MALDESI; type: in vivo, mouse; details: 4 h after IP injection

Compound: CS(=O)(=O)c1ccc(C(=O)Nc2ccc(Cl)c(-c3ccccn3)c2)c(Cl)c1 [vismodegib]
- event free survival (EFS) [1]: failed to extend the EFS
- unbound fraction of total vismodegib (serum protein): marginal
- vismodegib level in serum ([2]; 100 mg/kg, systemic (IP)): comparable levels to POx-vismo
- vismodegib concentrations in blood, tumor and forebrain compared to POx-vismo ([2]; oral gavage): significantly lower
- femur length [3]: reduced femur length
- drug albumin-bound in serum (albumin): 90%
- vismodegib unbound in serum (albumin): 9%
- suppression of pRB (phosphorylated RB (pRB); 50 mg/kg IP): sufficient to suppress pRB
- suppression of pRB+ cell fraction in tumors (phosphorylated RB (pRB); single 100 mg/kg IP): similarly suppressed pRB
- suppression of pRB+ cell fraction in tumors (phosphorylated RB (pRB); single 100 mg/kg oral): less suppression
- oral bioavailability [4]: 31.8%
- drug levels in the CSF as % of the concentration of unbound vismodegib [5]: 26-78%
- drug levels in the CSF as % of total plasma vismodegib [5]: 0.26%
- Kp [6]: 0.439
- distribution of vismodegib in tumor and forebrain [7]: evenly distributed

From PMC8160025 (Nanomedicine : nanotechnology, biology, and medicine, 2020)
